# What was measured:
# [1] = test system: Parkinsonian cynomolgus monkey; assay: MPTP Parkinsonian cynomolgus monkey chronically treated with I-dopa (adverse effects of anti-Parkinsonian drugs); assay type: in vivo; conditions: MPTP monkeys, long-term I-dopa
# Procedure: Treatment of adverse effects of conventional anti-Parkinsonian drugs as defined above are determined in a modification of the animal model of the Parkinsonian cynomolgus monkey according to P. J. Blanchet et al., Exp. Neurology 1998; 153: 214-222. Monkeys render parkinsonian by repeated injections of 1-methyl-4-phenyl-1,2,3,6-tetrahydropyridine (MPTP). The Parkinsonian monkeys are chronically treated with the standard I-dopa therapy according to P. J. Blanchet et al., Mov. Disord., 1998; 13: 798-802. Longterm treatment with I-dopa induces extrapyramidal motor side effects and psychotic states which are both qualitatively and quantitatively, assessed by the Abnormal Involuntary Movement Scale (P. J. Blanchet et al., Mov. Disord. 1998; 13: 798-802) for different body parts (face, neck, trunk, each limb) and by rating for psychotic states by observing the monkey's attention, reactivity and mobility.
# rats = assay: Catalepsy induction in rats (extrapyramidal motor side effects); assay type: in vivo, rat; conditions: doses up to 500 fold higher compared to the doses effective in the animal models
# Procedure: (§1) Extrapyramidal motor side effects in e.g. rodents are measured by the ability of a drug to induce catalepsy. Catalepsy is defined as a state where an animal continues to remain in an unnormal (nonphysiological 'uncomfortable') posture for a long time ([…] and S. D. Glick, Neuropharmacology, 1996; 15: 393-394; […] P. Janssen, Life Sci., 1979, […]). For example, if a hindpaw of a rat is placed on an elevated level, e.g. a platform elevated 3 cm above ground level, a normal rat immediately withdraws the hindpaw from the platform to the ground level. A cataleptic rat remains in this unnatural posture even for minutes.
# dopamine D3 receptor = dopamine D3 receptor (Homo sapiens, UniProt P35462)
# [2] = test system: neuroleptics-induced muscle rigidity in rats; assay: Neuroleptics-induced muscle rigidity in rats; assay type: in vivo, rat; conditions: resistance to passive flexion and extension of the hind limb
# Excerpt: A typical animal model is neuroleptics-induced muscle rigidity in rats according to S. Wolfarth et al., Arch. Pharmacol. 1992; 345: 209-212. Rats are challenged with the conventional neuroleptic drug haloperidol which enhances muscle tone. Muscle tone is electromechanically measured as the resistance to passive flexion and extension of the hind limb.
# [3] = test system: neuroleptics sensitized monkey; assay: Neuroleptics sensitized monkey, haloperidol challenge; assay type: in vivo; conditions: given after haloperidol challenge; scoring system
# Excerpt: Another typical animal model is the neuroleptics sensitized monkey according to D. E. Casey, Psychopharmacology, 1996; 124: 134-140. Monkeys treated repeatedly with conventional neuroleptics are highly sensitive to a subsequent challenge dose of neuroleptic drugs. When challenged, the monkeys immediately show extrapyramidal motor side effects such as dystonia, dyskinesias, akathisia, and bradykinesia which are rated by a scoring system. The conventional neuroleptic drug haloperidol is given as a challenge.
# mutant dystonic hamster = assay: Mutant dystonic hamster; assay type: in vivo; conditions: scoring system
# Excerpt: A typical animal model is the mutant dystonic hamster according to A. Richter and W. Löscher, Prog. Neurobiol. 1998; 54: 633-677. In this genetically dystonic hamsters, dystonic attacks are provoked by taking the animal from the home cage and placing it on a balance. The dystonic syndrome consists of a sequence of abnormal movements, and the severity of the single symptoms is rated by a scoring system.
# [4] = test system: striatonigral degeneration approach in the rat; assay: Striatonigral degeneration in the rat (6-hydroxydopamine plus quinolinic acid), turning behavior; assay type: in vivo; conditions: automated recorder
# Excerpt: Another more recent animal model is the striatonigral degeneration approach in the rat according to […] et al., J. Neural Transm. Suppl., 1999; 55: 103-113. Rats receive an unilateral injection of 6-hydroxydopamine into the left medial forebrain bundle followed by an injection of quinolinic acid into the ipsilateral striatum inducing nigrostriatal degeneration. The degeneration results in turning behavior to a challenge with dopaminomimetics such as apomorphine or amphetamine. Turning behavior is measured by an automated recorder.
# 5-HT1A receptor [5] = molecular target: T1, 5-HT1A receptor (Homo sapiens, UniProt P08908); conditions: in contrast to buspirone
# [6] = test system: oxotremorine-induced tremor; assay: Oxotremorine-induced tremor; assay type: in vivo; conditions: rating scale
# Procedure: A typical animal model for drug-induced tremors is the oxotremorine-induced tremor (e.g. H. Hallberg and O. Almgren, Acta Physiol. Scand., 1987; 129: 407-13; J. G. Clement and W. R. Dyck, J. Pharmacol. Meth., 1989; 22: 25-36). Oxotremorine induces tremor which is measured by a rating scale. (R)-(−)-2-[5-(4-fluoro-phenyl)-3-pyridyl-methyl-amino-methyl]-chromane or one of its pharmaceutically acceptable salt inhibited oxotremorine-induced tremors.
# [7] = test system: reserpinized rat or mouse; assay: Reserpinized rat or mouse (akinesia); assay type: in vivo; conditions: 24 h after reserpine
# Procedure: A typical animal model is the reserpinized rat or mouse (e.g. […]. Neural Transm.-Park. Dis. Dement. Sect., 1994; 7: 133-142; M. Gossel et al., J. Neural Transm.-Park. Dis. Dement. Sect., 1995; 10: 27-39; N. R. Hughes et al., Mov. Disord., 1998; 13: 228-233). Reserpine is a potent depleter of monoamines and produces nearly complete akinesia in both species. Prominent 24 h after application, the distance traveled and the time active is nearly zero as measured in conventional activity meters.
# D2 = D2 (Homo sapiens, UniProt P14416); assay: D2 antagonism; conditions: under increased doses
# [8] = test system: Parkinsonian cynomolgus monkey; assay: MPTP Parkinsonian cynomolgus monkey, Laval University Disability Scale; assay type: in vivo; conditions: MPTP monkeys
# Excerpt: A typical animal model for idiopathic Parkinson's disease is the Parkinsonian cynomolgus monkey according to P. J. Blanchet et al., Exp. Neurology 1998; 153: 214-222. Monkeys render parkinsonian by repeated injections of 1-methyl-4-phenyl-1,2,3,6-tetrahydropyridine (MPTP). Parkinsonian symptoms are qualitatively assessed by the use of the Laval University Disability Scale (B. Gomez-Mancilla et al., 1993; Mov. Disord. 8: 144-150) measuring the following symptoms: posture, mobility, climbing, gait, holding food, vocalizing, grooming, social interaction.
# [9] = test system: Campus Syndrome in the Pietrain pig; assay: Campus Syndrome in the Pietrain pig (tremor); assay type: in vivo; conditions: accelerometric recording
# Excerpt: (§2) Typical genetic models in mutant animals are the Campus Syndrome in the Pietrain pig according to A. Richter et al. (Exp. Neurology, 1995; 134: 205-213) or the Weaver mutant mouse according to J. R. Simon and B. Ghetti (Mol. Neurobiol., 1994; 9: 183-189). In the Campus Syndrome model, these mutant pigs show a high-frequency tremor when standing and during locomotion, but not while lying at rest. Assessment of tremor is made by accelerometric recording. In the Weaver mutant mouse, degenerative cerebellar atrophy is fould in association with tremor, gait instability, and toppling over the sides after a few steps.
# 5-HT1A receptor [10] = molecular target: T1, 5-HT1A receptor; assay: biochemical
# [11] = test system: catalepsy induced by conventional antidopaminergic drugs such as haloperidol; assay: Catalepsy induced by conventional antidopaminergic drugs such as haloperidol; assay type: in vivo; conditions: same dose-range as effective in the animal models
# Procedure: as §1
# [12] = test system: posthypoxic myoclonus, rats; assay: Posthypoxic myoclonus in rats; assay type: in vivo, rat; conditions: after cardiac arrest for 8 minutes
# Procedure: A typical animal model for myoclonus is myoclonus induced by an acute hypoxic episode according to D. D. Truong et al., Mov. Disord., 1994; 9: 201-206). In this model of posthypoxic myoclonus, rats undergo a cardiac arrest for 8 minutes and are resuscitated thereafter. Myoclonic jerks occur spontaneously but can be provoked by auditory stimulation, too, worsening over the days following cardiac arrest.
# [13] = test system: systemic 3-nitropropionic acid (3-NP) model in rats; assay: Systemic 3-nitropropionic acid (3-NP) model in rats, nocturnal activity; assay type: in vivo, rat
# Excerpt: A typical animal model is the systemic 3-nitropropionic acid (3-NP) model in rats according to C.
# After two injections of 3-NP, rats display nocturnal hyperactivity reflecting symptoms of early Huntington's disease, whereas rats treated with four injections of 3-NP display nocturnal akinesia (hypoactivity) reflecting symptoms of late Huntington's disease. Nocturnal activity is automatically measured in conventional activity cages by infrared beams.
# Weaver mutant mouse = Weaver mutant mouse (locomotor activity); assay type: in vivo; conditions: activity cages
# Excerpt: as §2
# [14] = Abnormal Involuntary Movement Scale
# T1 sequence (P08908 whole entry): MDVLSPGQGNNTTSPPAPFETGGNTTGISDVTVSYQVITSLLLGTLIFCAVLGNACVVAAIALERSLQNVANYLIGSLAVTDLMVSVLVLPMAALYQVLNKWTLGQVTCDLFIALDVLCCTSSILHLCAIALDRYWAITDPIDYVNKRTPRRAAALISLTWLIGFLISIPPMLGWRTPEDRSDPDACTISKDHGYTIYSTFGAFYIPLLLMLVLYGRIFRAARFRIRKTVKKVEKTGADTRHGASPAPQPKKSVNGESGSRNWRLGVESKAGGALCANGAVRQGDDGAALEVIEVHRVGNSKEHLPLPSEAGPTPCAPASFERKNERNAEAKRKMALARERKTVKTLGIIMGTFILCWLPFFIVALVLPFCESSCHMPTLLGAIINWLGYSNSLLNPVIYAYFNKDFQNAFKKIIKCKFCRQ
# Sequence of dopamine D3 receptor (P35462 whole entry, species assumed): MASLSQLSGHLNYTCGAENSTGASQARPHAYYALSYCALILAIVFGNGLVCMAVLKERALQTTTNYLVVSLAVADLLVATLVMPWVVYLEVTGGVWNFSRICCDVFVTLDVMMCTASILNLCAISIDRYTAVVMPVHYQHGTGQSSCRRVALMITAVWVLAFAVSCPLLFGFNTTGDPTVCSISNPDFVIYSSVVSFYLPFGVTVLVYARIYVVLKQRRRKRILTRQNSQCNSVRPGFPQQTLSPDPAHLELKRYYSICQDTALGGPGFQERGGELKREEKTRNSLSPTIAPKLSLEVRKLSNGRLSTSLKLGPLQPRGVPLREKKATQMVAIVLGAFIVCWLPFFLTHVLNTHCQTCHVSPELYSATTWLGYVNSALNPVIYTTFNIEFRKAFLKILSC
# Sequence of D2 (P14416 whole entry): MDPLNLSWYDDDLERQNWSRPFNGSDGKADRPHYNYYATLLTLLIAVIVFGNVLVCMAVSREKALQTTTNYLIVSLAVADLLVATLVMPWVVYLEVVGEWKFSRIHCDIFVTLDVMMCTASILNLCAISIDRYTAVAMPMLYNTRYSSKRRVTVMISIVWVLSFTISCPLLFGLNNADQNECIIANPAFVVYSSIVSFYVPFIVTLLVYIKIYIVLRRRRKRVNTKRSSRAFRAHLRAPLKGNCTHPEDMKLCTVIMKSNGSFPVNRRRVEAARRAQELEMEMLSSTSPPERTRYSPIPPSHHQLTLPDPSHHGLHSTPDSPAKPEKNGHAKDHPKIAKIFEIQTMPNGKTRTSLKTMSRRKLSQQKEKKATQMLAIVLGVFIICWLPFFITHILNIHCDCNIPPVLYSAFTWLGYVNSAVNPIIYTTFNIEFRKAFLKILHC
structure (smiles),measurement,setting,value
Fc1ccc(-c2cncc(CNC[C@H]3CCc4ccccc4O3)c2)cc1 [(R)-(−)-2-[5-(4-fluorophenyl)-3-pyridylmethylaminomethyl]-chromane],dystonic dyskinesias,[1]; [14],reduced
same,overall choreiform dyskinesias,[1]; [14],reduced
same,psychotic states,"[1]; rating of attention, reactivity and mobility",reduced
same,induction of catalepsy,rats,does not induce any catalepsy
same,affinity to the dopamine D3 receptor,dopamine D3 receptor,high affinity
same,muscle tone enhanced by haloperidol,[2],decreased
same,"extrapyramidal motor side effects (dystonia, dyskinesias, akathisia, bradykinesia)",[3],dose-dependently reduced
same,severity of dystonic symptoms,mutant dystonic hamster,dose-dependently reduced
same,turning behavior induced by amphetamine,[4],dose-dependently antagonized
same,turning behavior induced by apomorphine,[4],dose-dependently antagonized
same,potency as agonist at the 5-HT1A receptor relative to buspirone,5-HT1A receptor [5],30 fold
same,oxotremorine-induced tremors,[6],inhibited
same,akinesia,[7],dose-dependently reduced
same,distance traveled and time active,[7]; activity meters,restored distance traveled and time active to about the level of normal animals
same,D2 antagonism,D2,exhibit a D2 antagonism under increased doses
same,parkinsonian symptoms (Laval University Disability Scale),[8],reduced all the parkinsonian symptoms
same,total activity,[8],increased
same,tremor when standing and during locomotion,[9],reduced disabling tremor
same,IC50,5-HT1A receptor [10],1 nM
same,prevention of catalepsy induced by conventional antidopaminergic drugs,[11],able to prevent catalepsy
same,reversal of already existing catalepsy induced by conventional antidopaminergic drugs such as haloperidol,[11],reverses already existing catalepsy
same,number of auditory-evoked myoclonic jerks,[12],dose-dependently reduced
same,number of spontaneous myoclonic jerks,[12],dose-dependently reduced
same,nocturnal akinesia (hypoactivity),[13]; after four injections of 3-NP (late Huntington's disease),reduced
same,nocturnal hyperactivity,[13]; after two injections of 3-NP (early Huntington's disease),reduced
same,locomotor activity,Weaver mutant mouse,enhanced

# Source: patent publication US7928128B2, “Use of(R)-(−) -2-[5-(4-fluorophenyl)-3-pyridylmethylaminomethyl]-chromane and its physiologically acceptable salts” (Merck Patent Gesellschaft mit beschrankter Haftung, priority 2000, dated 2011)
